Test results from patent US20250171418A1, “PARP1 INHIBITORS AND USES THEREOF” (XinThera, Inc., priority 2022, published 2025).
pEC50, pIC50: −log10 of the molar value.

How the values were obtained:
DLD-1 BRCA2(−/−) = assay: Cell growth inhibition assay (CellTiter-Glo cell viability); assay type: cell-based; details: DLD-1 BRCA2(−/−) cells, 7 days, CellTiter Glo 2.0
Protocol: (§1) Cell proliferation was measured through the cell viability assay using DLD-1 BRCA2(−/−) and parental isogenic pair and MDA-MB-436 (mutated BRCA1) cell lines. The CellTiter-Glo (CTG) based cell viability assay is designed to determine the number of viable cells in the culture because of compound effect, by quantifying ATP, which indicates the presence of metabolically active cells.
(§2) DLD-1 BRCA2(−/−) and parental isogenic pair were cultured in RPMI 1640 supplemented with 10% fetal bovine serum (FBS), and MDA-MB-436 cells were cultured in DMEM supplemented with 10% FBS. Both were cultured at 37° C. with […]. Invention compounds were distributed to the 384 well plate (Corning, 3764) using Echo acoustic liquid handler to form a 1:3 serially diluted final concentration with top dose of 10 or 30 μM.

[1] = tested on: MDA-MB-436 (mutated BRCA1) cell lines; assay: as above; assay type: cell-based; details: MDA-MB-436 cells, 7 days, CellTiter Glo 2.0
Protocol: as §1, §2

PARP1 = PARP1 (Homo sapiens, UniProt P09874); assay: biochemical
Sequence of PARP1 (P09874 whole entry): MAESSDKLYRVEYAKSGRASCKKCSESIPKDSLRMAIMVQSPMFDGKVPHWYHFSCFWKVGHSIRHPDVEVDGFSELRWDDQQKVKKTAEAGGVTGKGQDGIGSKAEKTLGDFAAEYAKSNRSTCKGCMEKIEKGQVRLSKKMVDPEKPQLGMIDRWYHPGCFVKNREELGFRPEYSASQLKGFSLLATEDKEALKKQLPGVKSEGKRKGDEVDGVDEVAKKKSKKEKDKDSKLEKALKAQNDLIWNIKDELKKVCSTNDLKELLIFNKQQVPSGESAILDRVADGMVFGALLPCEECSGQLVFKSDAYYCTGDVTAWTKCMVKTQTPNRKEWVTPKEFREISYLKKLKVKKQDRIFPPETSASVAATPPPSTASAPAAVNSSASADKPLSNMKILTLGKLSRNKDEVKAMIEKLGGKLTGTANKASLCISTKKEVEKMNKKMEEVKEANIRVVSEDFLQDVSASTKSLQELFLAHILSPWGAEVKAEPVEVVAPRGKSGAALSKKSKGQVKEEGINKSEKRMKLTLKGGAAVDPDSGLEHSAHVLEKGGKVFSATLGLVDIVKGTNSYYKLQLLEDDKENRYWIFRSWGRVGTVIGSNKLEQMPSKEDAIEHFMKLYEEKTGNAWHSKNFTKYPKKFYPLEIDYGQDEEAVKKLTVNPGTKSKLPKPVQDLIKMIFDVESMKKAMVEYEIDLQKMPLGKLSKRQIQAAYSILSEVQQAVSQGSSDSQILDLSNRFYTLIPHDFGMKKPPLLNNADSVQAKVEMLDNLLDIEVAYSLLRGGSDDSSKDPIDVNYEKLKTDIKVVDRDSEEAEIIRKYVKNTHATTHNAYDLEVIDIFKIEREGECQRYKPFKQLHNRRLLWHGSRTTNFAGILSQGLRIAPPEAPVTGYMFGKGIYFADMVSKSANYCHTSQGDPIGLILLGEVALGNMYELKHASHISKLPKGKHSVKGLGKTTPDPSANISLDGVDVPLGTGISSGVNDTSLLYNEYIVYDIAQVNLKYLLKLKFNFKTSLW
Protocol: The assay was performed utilizing the following method:
Compounds were dissolved in DMSO an Echo550 liquid handler was utilized to make serial dilations in the desired concentration range in Optiplate-384F plates. 100% DMSO was used for the high (with protein) and low (without protein) control samples. 20 nL of compound or DMSO alone was added to individual assay plate wells.
PARP1 and PARP2 protein were expressed, purified, and diluted in assay buffer containing 50 mM Tris pH 8.0, 0.001% Triton X-100, 10 mM MgCl2, 150 mM NaCl to a final concentration of 20 nM. The PARPi-FL was then added at a final concentration of 3 nM.
The assay plate was centrifuged at 1000 rpm for 1 min and incubated for 4 h at room temperature.
The fluorescent polarization was read using an Envision plate reader using the following settings: • Excitation filter—FITC FP 480-Ex Slot 3 • Emission filter—FITC FP P-pol 535-Em Slot 4 • 2nd Emission filter—FITC FP S-pol 535-Em Slot 3 • Mirror module—FITC FP Dual Enh-Slot 1
XLFit (equation 201) is used to calculate a reported IC50 for each compound.

SMILES	pEC50 (DLD-1 BRCA2(−/−); Homo sapiens, DLD-1, 168 h)	pEC50 ([1]; Homo sapiens, 168 h)	pIC50 (PARP1)	pEC50 (DLD-1 BRCA2(−/−))	pEC50 [1]
Cc1nc2ccc(CN3CCN(c4ccc(C(=O)NC5CC5)nc4F)[C@H]4C[C@H]43)c(F)c2[nH]c1=O (single isomer, unassigned) [Example 9]	7.72	8.14	–	–	–
Cc1nc2ccc([C@@H](C)N3CCN(c4ccc(C(=O)NC5CC5)nc4)CC3)c(F)c2[nH]c1=O (single isomer, unassigned) [Example 29]	7.35	7.08	7.05	–	–
CCc1nc2ccc(C(C)N3CCN(c4ccc(C(=O)NC)nc4)CC3)c(F)c2[nH]c1=O (single isomer, unassigned) [Example 16]	–	–	–	7.52	7.82
Cc1nc2ccc([C@H](C)N3CCN(c4ccc(C(=O)NC5CC5)nc4)CC3)c(F)c2[nH]c1=O (single isomer, unassigned) [Example 28]	6.01	7.68	7.15	–	–
Cc1nc2ccc(CN3CCN(c4ccc(C(=O)N[C@H]5C[C@H](F)C5)nc4F)CC3)c(F)c2[nH]c1=O [Example 11]	8.17	8.42	8.28	–	–
Cc1nc2ccc(CN3CCN(c4ccc(C(=O)NC56CC(C5)C6)nc4F)CC3)c(F)c2[nH]c1=O [Example 4]	8.28	8.43	7.74	–	–
Cc1nc2ccc(CN3CCN(c4ccc(C(=O)NC5CC(F)(F)C5)nc4F)CC3)c(F)c2[nH]c1=O [Example 13]	8.36	8.30	–	–	–
COCCNC(=O)c1ccc(N2CCN(Cc3ccc4nc(C)c(=O)[nH]c4c3F)CC2)c(F)n1 [Example 10]	7.85	8.09	–	–	–
Cc1nc2ccc([C@H](C)N3CCN(c4ccc(C(=O)NC5CC5)nc4F)CC3)c(F)c2[nH]c1=O (single isomer, unassigned) [Example 24]	7.70	8.10	7.62	–	–
CNC(=O)c1ccc(N2CCN(Cc3ccc4nc(C)c(=O)[nH]c4c3F)C[C@H]2C)c(F)n1 [Example 3]	7.77	7.46	–	–	–
Cc1nc2ccc(CN3CCC(c4ccc(C(=O)NC5CC5)nc4F)CC3)c(F)c2[nH]c1=O [Example 27]	7.57	7.96	–	–	–
Cc1nc2ccc([C@@H](C)N3CCN(c4ccc(C(=O)NC5CC5)nc4F)CC3)c(F)c2[nH]c1=O (single isomer, unassigned) [Example 25]	7.46	7.92	7.62	–	–
CNC(=O)c1ccc(C2=CCN(Cc3ccc4nc(C)c(=O)[nH]c4c3F)CC2)c(F)n1 [Example 7, 2-fluoro-1′-[(5-fluoro-2-methyl-3-oxo-4H-quinoxalin-6-yl)methyl]-N-methyl-3′,6′-dihydro-2′H-[3,4′-bipyridine]-6-carboxamide]	7.82	8.17	7.82	–	–
CCc1nc2ccc([C@@H](C)N3CCN(c4ccc(C(=O)NC)nc4F)CC3)c(F)c2[nH]c1=O (single isomer, unassigned) [Example 18]	8.06	8.36	7.82	–	–
CNC(=O)c1ccc(C2CCN(Cc3ccc4nc(C)c(=O)[nH]c4c3F)CC2)c(F)n1 [Example 5, 6-fluoro-5-{1-[(5-fluoro-2-methyl-3-oxo-4H-quinoxalin-6-yl)methyl]piperidin-4-yl}-N-methylpyridine-2-carboxamide]	7.64	7.96	7.80	–	–
CNC(=O)c1ccc(N2CCN(Cc3ccc4nc(C)c(=O)[nH]c4c3F)[C@H]3C[C@H]32)c(F)n1 (relative stereo) [Example 2, rel-6-fluoro-5-[(1R,6S)-5-[(5-fluoro-2-methyl-3-oxo-4H-quinoxalin-6-yl)methyl]-2,5-diazabicyclo[4.1.0]heptan-2-yl]-N-methylpyridine-2-carboxamide]	8.46	8.15	–	–	–
CCc1nc2ccc(CN3CCN(c4ccc(C(=O)NCCOC)nc4F)CC3)c(F)c2[nH]c1=O [Example 12]	8.15	8.28	–	–	–
CNC(=O)c1ccc(N2CCN([C@H](C)c3ccc4nc(C)c(=O)[nH]c4c3F)CC2)c(F)n1 (single isomer, unassigned) [Example 23]	7.74	7.74	–	–	–
Cc1nc2ccc(CN3CCN(c4ccc(C(=O)NC5CC5)nc4)CC3)c(F)c2[nH]c1=O [Example 8]	7.41	7.89	7.82	–	–
Cc1nc2ccc(CN3CC=C(c4ccc(C(=O)NC5CC5)nc4F)CC3)c(F)c2[nH]c1=O [Example 26]	7.68	7.64	7.43	–	–
CCc1nc2ccc(CN3CCN(c4ccc(C(=O)NC5CC5)nc4F)CC3)c(F)c2[nH]c1=O [Example 14]	8.55	8.68	8.28	–	–
CNC(=O)c1ccc(N2CCN([C@@H](C)c3ccc4nc(C)c(=O)[nH]c4c3F)CC2)c(F)n1 (single isomer, unassigned) [Example 22]	7.60	7.85	–	–	–
CCc1nc2ccc([C@H](C)N3CCN(c4ccc(C(=O)NC)nc4F)CC3)c(F)c2[nH]c1=O (single isomer, unassigned) [Example 17]	8.11	8.17	7.62	–	–
Cc1nc2ccc(CN3CCN(c4ccc(C(=O)N[C@H]5CC5(F)F)nc4F)CC3)c(F)c2[nH]c1=O (single isomer, unassigned) [Example 20]	8.24	8.51	–	–	–
CCc1nc2ccc(C(C)N3CCN(c4ccc(C(=O)NC)nc4)CC3)c(F)c2[nH]c1=O (single isomer, unassigned) [Example 15]	7.55	7.82	–	–	–
Cc1nc2ccc(CN3CCN(c4ccc(C(=O)NC5CC5)nc4)[C@H]4C[C@H]43)c(F)c2[nH]c1=O (single isomer, unassigned) [Example 6]	7.08	7.24	7.85	–	–
